From publication PMC7940618, “Specific inhibition of the Survivin–CRM1 interaction by peptide-modified molecular tweezers” (Nature Communications, 2021)
“And” between values parts separate entries of the source, which are not always exact repeats. Equal entries are not always repeated. Peptide text beside a SMILES is read from it.

Columns and labels:
[1] = target: T1, Survivin120/CRM1_1-1062VLV430AAA complex (Homo sapiens, UniProt O15392); test: Fluorescence anisotropy titration of Atto488-Survivin120/CRM1 complex with tweezers; format: binding; conditions: for Anisotropy: Data 1; for IC50: fluorescence anisotropy, Atto488-Survivin120:CRM1 mutant 1:5, n = 1, read-out: IC50, disruption of Survivin–CRM1 complex
T1 construct: the only published NMR structure originated from a truncated Survivin (aa 1-120) with improved solubility; GST with PreScission site (N); made in house; host or cells: E. coli BL21-CodonPlus-RIL (CRM1 mutant); E. coli soluBL21 (Survivin120)
Protocol: We also used fluorescence anisotropy experiments to investigate the ability of the tweezer molecules to disrupt the Survivin–CRM1 complex. Atto488-labeled Survivin120 was preincubated with the CRM1_1-1062VLV430AAA mutant[40] that binds Survivin irrespective of RanGTP and titrated with tweezers.
Fluorescence anisotropy was measured with a Jasco Spectrofluorometer FP-8300 in PBS buffer, pH 7.4, at 25 °C and data were collected with the software Spectra Manager™.
For the quantitative analysis of the Survivin120/CRM1 complex, Survivin120 was labeled with ATTO488-maleimide from Jenabioscience according to the manufacturer’s instructions and mixed with CRM1_1-1062VLV430AAA in a ratio of 1:5. The protein complex was then titrated with tweezers in several steps until a final concentration of approximately 180 μM tweezers was reached. Data were transformed to logarithmic scale and IC50 was fitted using the equation in GraphPad Prism 8:2 y=Amin+Amax−Amin/1+10^x−logIC50 where Amax is the anisotropy in the absence of tweezer, Amin is the anisotropy at the end titration, and x is the concentration of tweezer. Amax was constrained for each data set, whereas Amin and IC50 were fitted.

[2] = target: T2, GST-Survivin120–CRM1 interaction (Homo sapiens, UniProt O15392); test: Pull-down with GST-Survivin120 wildtype bait, CRM1 and RanQ69L; format: binding; conditions: for CRM1: Peak area determined with ImageJ / CRM1 intensity_normalised on GST-Surv intensity (samples 1-14) / CRM1: Control w/o GST-Survivin subtracted (sample 16 or 23): CRM1 band; for CRM1: Peak area determined with ImageJ / CRM1 intensity_normalised on GST-Surv intensity (samples 1-14) / CRM1: Control w/o GST-Survivin subtracted (sample 16 or 23) / CRM1 intensity_normalised on GST-Surv intensity (samples 1-14) and CRM1 intensity w/o incubation (sample 15 or 22): samples 15-21 (WT); for CRM1: Control w/o GST-Survivin subtracted (sample 16 or 23): sample 16 subtracted; for GST-Surv: Peak area determined with ImageJ / GST-Surv: Control w/o GST-Survivin subtracted (sample 2 or 9): GST-Surv bait band; for GST-Surv: Peak area determined with ImageJ: samples 1-7 (WT according to the summary in r39-r41); for GST-Surv: Control w/o GST-Survivin subtracted (sample 2 or 9): samples 1-7 (WT), sample 2 subtracted; for Normalised CRM1 intensity, summary of replicates I and II: WT, w/o tweezer = 100, replicates I and II
T2 construct: the only published NMR structure originated from a truncated Survivin (aa 1-120) with improved solubility; made in house; host or cells: Escherichia coli soluBL21
Protocol: Next, we investigated whether tweezer inhibition of the export complex assembly is compromised upon lysine mutations near the NES. Therefore, pull-down experiments were performed with recombinant GST-tagged Survivin120 wildtype and K90/103T as bait proteins, tweezers, recombinant CRM1 and RanQ69L (Fig. 7g). Controls lacking the Survivin baits were included, as well as isolated peptides without tweezer (Fig. 7h). […] However, for the double lysine mutant GST-Survivin120-K90/103T even the tweezer conjugates lost most of their inhibitory power toward the essential Survivin–CRM1 interaction.
All pull-down assays were performed at room temperature in pull-down buffer (PBS, pH 7.4, 1 mM DTT, 0.02 Triton X-100). GST fusion proteins were immobilized on 50 μL GSH-coated Sepharose 4B beads from GE Healthcare. The beads were prior equilibrated and blocked with 500 μL pull-down blocking buffer (PBS, pH 7.4, 1 (w/v) BSA, 1 mM DTT, 0.02 (v/v) Triton X-100) for 1 h to prevent unspecific binding.
For analysis of the effective inhibitory tweezer concentration, 200 μg 293T lysate with overexpressed Survivin142-HA was preincubated without ligand or with different concentrations (10 nM to 200 μM) of unmodified tweezer TW, TW-ELTL, TW-ELTLGEFL, or TW-LFEEGLLT for 1 h and then mixed with 35 μg GST-CRM1, 55 μg RanQ69L, and 2 mM dGTP. GSH-beads were incubated with this protein mixture for 2 h under rotation. For analysis of tweezer specificity, 40 μg GST-Survivin120 or GST-Survivin120-K90/103T point mutant was pre-bound to equilibrated GSH-beads in 500 μL pull-down buffer, containing additionally either no ligand or 50 μM unmodified tweezer TW, TW-ELTL, TW-ELTLGEFL, or peptides ELTL and ELTLGEFL, for 1 h under rotation. After washing and blocking, GSH-beads were incubated with a protein mixture consisting of 2 mM dGTP, 50 μg CRM1, and 50 μg RanQ69L for 2 h under rotation.
Samples of input and beads taken during pull-down experiments were ran on 12.5 SDS gels and transferred onto 0.2 µM PVDF membranes (Amersham Hybond P 0.2) using a PerfectBlue™ tank electro blotter (Peqlab) at 350 mA for 150 min. Membranes were blocked for 1 h using 5% milk powder in TBS buffer containing 0.1% Tween-20. Next, membranes were incubated in primary antibodies against HA (anti-HA, mouse monoclonal, BioLegend, Covance MMS-101R, 1:1,000), GST (anti-GST, mouse monoclonal, Santa Cruz Biotechnology Inc., sc-57753, 1:1000) or CRM1 (anti-CRM1, rabbit polyclonal, Novus Biologicals Ltd., NB100-79802, 1:10,000) overnight at 4 °C. Secondary horseradish peroxidase (HRP)-conjugated antibody (anti-mouse IgG-HRP, sheep, GE Healthcare, NXA931 or anti-rabbit IgG-HRP, donkey, GE Healthcare, NA934) was then added (1:10,000) for 1 h at room temperature. Chemiluminescence was detected and imaged using the Pierce ECL Plus Western Blotting Substrate kit (Thermo Fisher Scientific) and Chemidoc system (Bio-Rad) or film processor Cawomat 2000 IR (CAWO). Western blots were analyzed by densitometric analysis with ImageJ version 1.52p (U.S. National Institutes of Health), measuring the mean gray intensity of protein bands. Uncropped and unprocessed scans of western blots are deposited in the Source Data file.

[3] = Concentration of Tweezer 8.26446
[4] = Concentration of Tweezer 16.39344
[5] = Concentration of Tweezer 24.39024
[6] = Concentration of Tweezer 32.25806
[7] = Concentration of Tweezer 40.00000
[8] = Concentration of Tweezer 55.11811
[9] = Concentration of Tweezer 83.96947
[10] = Concentration of Tweezer 136.69060
[11] = Concentration of Tweezer 183.67350
[12] = fraction of sample 15 (w/o Tweezer)

T2 sequence (O15392 1-120): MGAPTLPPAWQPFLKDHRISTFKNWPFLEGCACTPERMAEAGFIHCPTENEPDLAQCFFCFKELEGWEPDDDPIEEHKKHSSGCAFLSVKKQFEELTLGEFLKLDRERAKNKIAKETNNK
T1 sequence (O15392 1-120, one chain of several): as the sequence (O15392 1-120) above

Structure (SMILES)	Anisotropy [1, 3]	Anisotropy [1, 4]	Anisotropy [1, 5]	Anisotropy [1, 6]	Anisotropy [1, 7]	Anisotropy [1, 8]	Anisotropy [1, 9]	Anisotropy [1, 10]	Anisotropy [1, 11]	Anisotropy ([1]; Concentration of Tweezer 225.80650)	IC50 [1]	CRM1: Peak area determined with ImageJ [2]	CRM1 intensity_normalised on GST-Surv intensity (samples 1-14) [2]	CRM1: Control w/o GST-Survivin subtracted (sample 16 or 23) [2]	GST-Surv: Peak area determined with ImageJ [2]	GST-Surv: Control w/o GST-Survivin subtracted (sample 2 or 9) [2]	Normalised CRM1 intensity, summary of replicates I and II [2]	inhibition of the interaction between CRM1 and GST-Survivin120 ([2]; pull-down, 50 µM ligand, wildtype)	CRM1 intensity_normalised on GST-Surv intensity (samples 1-14) and CRM1 intensity w/o incubation (sample 15 or 22) [2, 12]	CRM1 intensity_normalised on GST-Surv intensity (samples 1-14) and CRM1 intensity w/o incubation (sample 15 or 22) ([2]; w/o Tweezer = 100)
O=P(O)(O)Oc1c2c(c(OP(=O)(O)O)c3c1C1CC3c3cc4c(cc31)C1CC4c3ccccc31)C1CC2c2cc3c(cc21)C1CC3c2ccccc21 [TW, reference compound]	0.0578	0.0573	0.0568	0.0561	0.0556	0.0551	0.0525	0.0507	0.0512	0.0517	53 µM and 53.4 µM	21154.6	0.3073	16296.9	53864.7	53029.3	86.9559% and 97.9595%	inactive	0.8696	86.9559%
CC(C)C[C@H](NC(=O)[C@H](Cc1ccccc1)NC(=O)[C@H](CCC(=O)O)NC(=O)CNC(=O)[C@H](CC(C)C)NC(=O)[C@@H](NC(=O)[C@H](CC(C)C)NC(=O)[C@H](CCC(=O)O)NC(=O)Cn1cc(CCOP(=O)(O)Oc2c3c(c(OP(=O)(O)O)c4c2C2CC4c4cc5c(cc42)C2CC5c4ccccc42)C2CC3c3cc4c(cc32)C2CC4c3ccccc32)nn1)[C@@H](C)O)C(=O)O [TW-ELTLGEFL] (HELM PEPTIDE1{[O=C(Cn1cc(CCOP(=O)(O)Oc2c3c(c(OP(=O)(O)O)c4c2C2CC4c4cc5c(cc42)C2CC5c4ccccc42)C2CC3c3cc4c(cc32)C2CC4c3ccccc32)nn1)[*:2]].E.L.T.L.G.E.F.L}$$$$V2.0)											12 µM and 11.6 µM						18.4722% and 35.2764%			18.4722%
CC(C)C[C@H](NC(=O)[C@@H](NC(=O)[C@H](CC(C)C)NC(=O)[C@H](CCC(=O)O)NC(=O)Cn1cc(CCOP(=O)(O)Oc2c3c(c(OP(=O)(O)O)c4c2[C@H]2C[C@@H]4c4cc5c(cc42)[C@H]2C[C@@H]5c4ccccc42)[C@H]2C[C@@H]3c3cc4c(cc32)[C@H]2C[C@@H]4c3ccccc32)nn1)[C@@H](C)O)C(=O)O [TW-ELTL]	0.0572	0.0560	0.0559	0.0551	0.0548	0.0528	0.0510	0.0501	0.0506		39 µM	4951.05	0.007388	93.343	13469.9	12634.6	2.09% and 27.3879%		0.0209	2.09%
